# Values joined by “and” are separate entries in the source; they are usually repeats but may differ in a detail not shown here. Equal values may be shown once.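 Values below derive from 48-hour exposures of cells grown in 96-well plates, with endpoints linearly interpolated between the two concentrations bracketing the appropriate inhibition level. At the GI50, growth is halved. Definition used: TGI = concentration required for complete inhibition of growth.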
# Assays:
# Assay in all cases: DTP human tumour cell line panel, 48 h
# SK-MEL-28 melanoma = test system: SK-MEL-28 melanoma
# SF-539 CNS = test system: SF-539 CNS
# M14 melanoma = test system: M14 melanoma
# OVCAR-3 ovarian = test system: OVCAR-3 ovarian
# KM12 colon = test system: KM12 colon
# HOP-62 NSCLC = test system: HOP-62 NSCLC
# PC-3 prostate = test system: PC-3 prostate
# OVCAR-4 ovarian = test system: OVCAR-4 ovarian
# HL-60(TB) leukemia = test system: HL-60(TB) leukemia
# RXF 393 renal = test system: RXF 393 renal
SMILES,GI50 (SK-MEL-28 melanoma),TGI (SK-MEL-28 melanoma),GI50 (SF-539 CNS),TGI (SF-539 CNS),GI50 (M14 melanoma),TGI (M14 melanoma),GI50 (OVCAR-3 ovarian),TGI (OVCAR-3 ovarian),GI50 (KM12 colon),TGI (KM12 colon),GI50 (HOP-62 NSCLC),TGI (HOP-62 NSCLC),GI50 (PC-3 prostate),TGI (PC-3 prostate),GI50 (OVCAR-4 ovarian),TGI (OVCAR-4 ovarian),GI50 (HL-60(TB) leukemia),TGI (HL-60(TB) leukemia),GI50 (RXF 393 renal),TGI (RXF 393 renal)
CCOc1ccc(-c2nc3ccc(-c4nc5ccc(N6CCN(C)CC6)cc5[nH]4)cc3[nH]2)cc1,0.77 µM,2.13 µM,0.689 µM,2 µM,0.264 µM,2.08 µM,0.125 µM,0.393 µM,0.999 µM,2.15 µM,0.456 µM,1.6 µM,0.352 µM,6.19 µM,0.219 µM,0.838 µM,1.2 µM and 0.162 µM,1.23 µM,–,–
COc1cc2c3c(n(CCCN=[N+]=[N-])c(=O)c2cc1OC)-c1ccccc1C3=O,> 100 µM,> 100 µM,4.73 µM,22.8 µM,1.82 µM,13.9 µM,4.58 µM,24.5 µM,> 100 µM,> 100 µM,3.53 µM,43.1 µM,> 100 µM,> 100 µM,22.6 µM,> 100 µM,–,–,–,–
Cn1cnc([N+](=O)[O-])c1S(=O)(=O)Oc1ccc(Cl)cc1,19.2 µM,51.8 µM,7.11 µM,21 µM,2.36 µM,5.21 µM,1.86 µM,3.42 µM,23 µM,91.4 µM,16.1 µM,39 µM,17.2 µM,49.2 µM,–,–,1.85 µM,3.77 µM,2.77 µM,8.01 µM
O=C(Nc1ccc(Cl)c(C(F)(F)F)c1)Nc1ccc(-c2cccnc2)cc1N1CCC(CO)CC1,2.22 µM,5.71 µM,2.29 µM,5.84 µM,1.93 µM,4.85 µM,1.84 µM,4.3 µM,2.2 µM,6.44 µM,2.02 µM,5.09 µM,1.87 µM,5.37 µM,2.97 µM,> 100 µM,–,–,1.74 µM,3.34 µM
COc1ccc2c(n1)Sc1nc3ccccc3nc1N2,–,> 100 µM,–,50.1 µM,–,> 100 µM,–,> 100 µM,–,> 100 µM,–,79.5 µM,–,> 100 µM,–,> 100 µM,–,–,–,> 100 µM
CN(C)CC1(C)CC/C(=C\c2ccc(Cl)cc2)C1=O (centres undefined),–,> 100 µM,–,> 100 µM,–,> 100 µM,–,> 100 µM,–,80.3 µM,–,> 100 µM,–,–,–,> 100 µM,–,> 100 µM,–,82.1 µM
Clc1cc(Br)ccc1-c1ccc(CNCC2CCNCC2)o1,1.89 µM,3.42 µM,1.65 µM,3.17 µM,1.85 µM,3.7 µM,1.75 µM,3.27 µM,1.71 µM,3.22 µM,1.84 µM,3.43 µM,1.64 µM,3.3 µM,1.86 µM,4.49 µM,1.89 µM,3.99 µM,–,–
COc1ccc(C)c2sc(N(Cc3cccnc3)C(=O)c3ccc(C#N)cc3)nc12,–,–,55.6 µM,> 100 µM,44.9 µM,> 100 µM,40.1 µM,> 100 µM,34.6 µM,> 100 µM,> 100 µM,> 100 µM,30.2 µM,> 100 µM,–,–,31.1 µM,> 100 µM,26.1 µM,99.8 µM
CCOC(=O)C1CC(=O)C=C2CCCCC21 (centres undefined),–,> 100 µM,–,> 100 µM,–,> 100 µM,–,> 100 µM,–,> 100 µM,–,> 100 µM,–,–,–,> 100 µM,–,> 100 µM,–,> 100 µM
COc1ccc(OC)c(N2CC(O)=C(c3nc4ccccc4s3)C2=N)c1,49.5 µM,> 100 µM,83.8 µM,> 100 µM,> 100 µM,> 100 µM,74.1 µM,> 100 µM,39.1 µM,> 100 µM,> 100 µM,> 100 µM,52.5 µM,> 100 µM,45.6 µM,> 100 µM,–,–,95 µM,> 100 µM
COc1cc(OC)c(C(=O)/C=C/c2ccc(C#N)cc2)c(OC)c1,1.92 µM,7.61 µM,1.28 µM,3.85 µM,1.07 µM,3.15 µM,1.77 µM,7.93 µM,1.58 µM,6.55 µM,1.44 µM,4.24 µM,1.72 µM,6.87 µM,1.63 µM,> 50 µM,–,–,1.39 µM,4.23 µM
C=CCCn1nc(-c2ccccc2)oc1=O,–,> 100 µM,–,> 100 µM,–,> 100 µM,–,> 100 µM,–,> 100 µM,–,> 100 µM,–,–,–,> 100 µM,–,> 100 µM,–,> 100 µM
CCN1/C(=C/C(C)=C/c2sc3ccc4ccccc4c3[n+]2CC)Sc2ccc3ccccc3c21,0.165 µM,0.329 µM,0.227 µM,1.01 µM,0.196 µM,0.58 µM,0.148 µM,0.317 µM,0.136 µM,0.276 µM,0.192 µM,0.47 µM,0.085 µM,1.46 µM,0.138 µM,1.26 µM,0.106 µM,2.68 µM,–,–

# — PubChem BioAssay (NCI)
